Assay results reported in PMC4154469, “Extracellular gentamicin reduces the activity of connexin hemichannels and interferes with purinergic Ca^2+ signaling in HeLa cells” (Frontiers in Cellular Neuroscience, 2014).

What was measured:
[1] = molecular target: T1, connexin45 (mCx45) hemichannel (Mus musculus, UniProt P28229); assay: ethidium uptake in HeLa-mCx45 cells, […] streptomycin; format: cell-based
T1 construct: gene Gjc1; mouse Cx45 (NM_001159383.1) stably expressed in HeLa cells

[2] = molecular target: T2, connexin43 (mCx43) hemichannel (Mus musculus, UniProt P23242); assay: ethidium uptake in HeLa-mCx43 cells, […] streptomycin; format: cell-based
T2 construct: gene Gja1; mouse Cx43 (NM_010288.3) stably expressed in HeLa cells
T2 sequence (P23242 2-382): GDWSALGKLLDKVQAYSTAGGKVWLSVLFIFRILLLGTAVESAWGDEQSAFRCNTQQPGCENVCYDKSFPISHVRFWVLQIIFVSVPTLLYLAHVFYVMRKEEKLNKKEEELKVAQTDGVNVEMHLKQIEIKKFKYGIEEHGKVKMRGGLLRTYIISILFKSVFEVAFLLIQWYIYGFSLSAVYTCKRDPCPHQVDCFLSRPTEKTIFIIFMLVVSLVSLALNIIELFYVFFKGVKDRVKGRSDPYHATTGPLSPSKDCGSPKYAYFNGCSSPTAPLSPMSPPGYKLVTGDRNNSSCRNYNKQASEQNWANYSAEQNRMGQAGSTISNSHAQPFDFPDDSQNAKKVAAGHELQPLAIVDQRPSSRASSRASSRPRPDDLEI

T1 sequence (P28229 whole entry): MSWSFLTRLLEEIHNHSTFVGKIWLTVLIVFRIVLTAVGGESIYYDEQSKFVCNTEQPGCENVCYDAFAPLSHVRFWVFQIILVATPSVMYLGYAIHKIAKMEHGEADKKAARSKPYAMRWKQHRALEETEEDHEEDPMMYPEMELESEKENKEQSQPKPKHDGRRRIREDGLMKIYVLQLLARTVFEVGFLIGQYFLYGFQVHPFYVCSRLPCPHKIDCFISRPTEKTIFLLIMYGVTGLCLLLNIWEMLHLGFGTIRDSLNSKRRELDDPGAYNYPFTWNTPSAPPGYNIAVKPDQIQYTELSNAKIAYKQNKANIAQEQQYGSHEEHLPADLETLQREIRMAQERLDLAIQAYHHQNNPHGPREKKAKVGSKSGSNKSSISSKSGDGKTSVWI

## [H]/N=C(/N)N[C@H]1[C@H](O)[C@@H](O)[C@H](O[C@@H]2O[C@@H](C)[C@](O)(C=O)[C@H]2O[C@@H]2O[C@@H](CO)[C@H](O)[C@@H](O)[C@@H]2NC)[C@@H](N/C(N)=N\[H])[C@@H]1O [streptomycin]
[1]
  ethidium uptake in HeLa-mCx45 cells, 200 μM streptomycin: In HeLa-mCx45 cells, Etd uptake was reduced to values below the ones recorded under control condition
[2]
  ethidium uptake in HeLa-mCx43 cells, 200 μM streptomycin: also inhibited the Etd uptake of HeLa-rCx26 (Figures 2E,F), -mCx43 and -mCx45 cells in DCFS
